Assay results from patent US20220009894A1, “1,2,3,4-TETRAHYDROQUINOXALINE DERIVATIVE, PREPARATION METHOD THEREFOR AND APPLICATION THEREOF” (Abbisko Therapeutics Co., Ltd., priority 2019, published 2022).

Experiments:
RORγt-LBD = target: T1, RORγt-LBD (Homo sapiens, UniProt P51449); assay: Time-resolved fluorescence resonance energy-transfer assay (TR-FRET), co-activator peptide recruitment; format: biochemical; set-up: TR-FRET Biochemical Amax: unit not given here; settings: for EC50: His-RORγt-LBD 30 nM, SRC peptide 500 nM, agonistic activity, averages of one or more measurements, read-out: TR-FRET Biochemical EC50/; for TR-FRET Biochemical Amax: upper activation limit, His-RORγt-LBD, SRC peptide
T1 sequence (P51449 269-508 limits assumed): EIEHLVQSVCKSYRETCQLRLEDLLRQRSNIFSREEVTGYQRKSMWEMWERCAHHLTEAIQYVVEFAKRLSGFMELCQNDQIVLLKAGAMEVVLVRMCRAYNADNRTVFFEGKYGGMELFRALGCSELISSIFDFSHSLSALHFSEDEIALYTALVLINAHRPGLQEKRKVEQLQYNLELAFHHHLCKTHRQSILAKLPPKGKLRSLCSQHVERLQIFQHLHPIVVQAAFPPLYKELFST
Text: I. Time-Resolved Fluorescence Resonance Energy-Transfer Assay (TR-FRET)
This experiment was a screening experiment for RORγt nuclear receptor agonists based on TR-FRET technology. When His-labeled RORγt-LBD receptor binds to receptor agonists, it may increase the recruitment of biotin-labeled co-activator peptides. Europium-His-RORγt-LBD is indirectly labeled by donor (Eu) by binding to Eu-anti-His antibody. Once Eu is activated by an energy source (such as flashlight or laser), the energy will be transferred to the co-activator indirectly labeled by allophycocyanin by binding of allophycocyanin-streptavidin and biotin-labeled co-activator. • 1. 10× buffer (500 mM Tris-HCl, 500 mM KCl, and 10 mM Na-EDTA) was prepared, pH value was adjusted to 7.0. The buffer was stored at 4° C. for later use and was restored to normal temperature before experiment; • 2. The 10× buffer was diluted to 1× with pure water. Final concentration of 0.01% Triton X-100 and 1 mM DTT (dithiothreitol) were added to prepare the assay buffer; • 3. DMSO was used to prepare 1000× compound stock solution. The compound solution was serial-diluted in 5-fold for 7 concentrations from the top concentration of 1000 nM/10000 nM. Then the 10× compound solution was prepared with assay buffer. An amount of 2 μL was aliquoted into the 20 μL system; • 4. 5×RORγt-LBD protein solution was unfreezed, and a solution of 5× concentration was prepared with assay buffer to obtain a final concentration of 30 nM. The whole operation was carried out on ice; • 5. 5×SRC peptide was unfreezed, and a solution of 5× concentration was prepared with assay buffer to obtain a final concentration of 500 nM. The whole operation was carried out on ice; • 6. 4 μL/well of RORγt-LBD receptor was added into the testing wells of 384-well plate, and the same amount of assay buffer was added to the control wells of non-RORγt-LBD group; • 7. 2 μL of compound was added into each well of 384-well plate; • 8. 4 μL of SRC peptide was added into each well of 384-well plate; • 9. 2× Eu-anti-6× His/APC-Streptavidin was diluted with Lance detection buffer to a final concentration of 0.25 nM and 5 nM, respectively, and then 10 μL of 2× Eu-anti-6× His/APC-Streptavidin was added into each well of 384-well plate; • 10. The mixed solution was incubated at 4° C. overnight; • 11. On the morning of the next day, the 384-well plate was incubated at room temperature for 1 hr. Then the corresponding signal values were read with PerkinElmer EnVision at a wavelength of 665/615 […]. The agonistic activity of the corresponding compound was calculated with Graphpad Prism 7.0 software.

RORγt = target: T2, RORγt (Homo sapiens, UniProt P51449); assay: RORγt cellular reporter gene detection assay; format: cell-based; settings: 24 hrs; for EC50: HEK 293 cells co-transfected with pFN26A-RORγt-LBD and pG14.35, in presence of antagonist Ursolic acid, top concentration 50 μM; for Cellular Reporter Assay Amax: upper activation limit, HEK 293 cells, in presence of antagonist Ursolic acid;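 as to Cellular Reporter Assay Amax: Ursolic Acid added as 5 µL of 20 µM medium per well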
T2 construct: The plasmid of pFN26A-RORγt-LBD and pG14.35 (Promega, Cat. No. E1370) were co-transfected into HEK 293 cells; expressed in transfected cells; host or cells: HEK 293 cells (Cat. No. GNHu18)
T2 sequence (P51449 269-508 limits assumed): T1 sequence (P51449 269-508 limits assumed)
Method: II. RORγt Cellular Reporter Gene Detection Assay
In this experiment, RORγt Reporter Gene Detection method was used to evaluate the activation and specificity of compounds to RORγt in cells. The plasmid of pFN26A-RORγt-LBD and pG14.35 (Promega, Cat. No. E1370) were co-transfected into HEK 293 cells (Cat. No. GNHu18). The efficacy of compounds was evaluated with the presence of an antagonist Ursolic acid (Selleck, Cat. No. S2370-100 mg). The specific experimental process was as follow: • 1. The plasmids-co-transfected cells were inoculated into a 96-well plate (Corning, Cat. No 3610) in a fresh DMEM medium (Gibco, cat. No. 1773536) containing 10% fetal bovine serum (Gibco, Cat. No. 10099-141) at 30000 cells/40 μL/well; • 2. 5 μL of medium containing 20 μM Ursolic acid was added thereto; • 3. The dose effect was evaluated by a 4-fold dilution of the test compound starting from 50 μM; • 4. 5 μL of medium containing a compound concentration of 10-fold of its final test concentration was added; • 5. After the cells were incubated at 37° C. and 5% CO2 for 24 hrs, 50 μL of detection reagent was added to detect firefly fluorescence using PerkinElmerEnVision, and 50 μL of the second detection reagent was added to detect sea kidney fluorescence; • 6. A four-parameter curve simulated in GraphPad Prism was used to determine the concentration for 50% activation (EC50) and the upper activation limit (Amax) for each compound.

| SMILES | EC50 (RORγt-LBD) | TR-FRET Biochemical Amax (RORγt-LBD) | EC50 (RORγt) | Cellular Reporter Assay Amax (RORγt) |
| --- | --- | --- | --- | --- |
| CCOC(=O)C(=O)N1CCN2c3ccc(/C=C/c4c(Cl)cccc4C(F)(F)F)cc3N(S(=O)(=O)c3cccc(C(F)(F)F)c3)C[C@@H]2C1 [Example 58, ethyl (S,E)-2-(8-(2-chloro-6-(trifluoromethyl)styryl)-6-((3-(trifluoromethyl)phenyl)sulfonyl)-1,2,4,4a,5,6-hexahydro-3H-pyrazino[1,2-a]quinoxalin-3-yl)-2-oxoacetate] | 19.4 nM | 0.79 | 1400 nM | 4.0 |
| N#Cc1cc(Cl)cc(-c2ccc3c(c2)N(S(=O)(=O)c2cccc(C(F)(F)F)c2)C[C@@H]2CN(CC(=O)O)CCN32)c1 [Example 97, (S)-2-(8-(3-chloro-5-cyanophe-nyl)-6-((3-(trifluoromethyl)phe-nyl)sulfonyl)-1,2,4,4a,5,6-hexa-hydro-3H-pyrazino[1,2-a]quinox-alin-3-yl)acetic acid] | 37 nM | 0.61 | 605 nM | 2.5 |
| CC(C)OC(=O)OCOC(=O)CN1CCN2c3ccc(/C=C/c4c(Cl)cccc4C(F)(F)F)cc3N(S(=O)(=O)c3cccc(C(F)(F)F)c3)C[C@@H]2C1 [Example 50, ((isopropoxycarbonyl)oxy)methyl (S,E)-2-(8-(2-chloro-6-(trifluoromethyl)styryl)-6-((3-(trifluoromethyl)phenyl)sulfonyl)-1,2,4,4a,5,6-hexahydro-3H-pyrazino[1,2-a]quinoxalin-3-yl)acetate] | 8.13 nM | 0.64 | 676 nM | 6.3 |
| C/C(=C\c1ccc2c(c1)N(S(=O)(=O)c1cccc(C(F)(F)F)c1)C[C@@H]1CN(C(=O)CC#N)CCN21)c1c(F)cccc1Cl [Example 30, (S,E)-3-(8-(2-(2-chloro-6-fluorophenyl)prop-1-en-1-yl)-6-((3-(trifluoromethyl)phenyl)sulfonyl)-1,2,4,4a, 5,6-hexahydro-3H-pyrazino [1,2-a]quinoxalin-3-yl)-3-oxopropanenitrile] | 8.34 nM | 0.80 | 404 nM | 4.0 |
| C/C(=C\c1ccc2c(c1)N(S(=O)(=O)c1cccc(C(F)(F)F)c1)C[C@@H]1CN(C(N)=S)CCN21)c1c(F)cccc1Cl [Example 63, (S,E)-8-(2-(2-chloro-6-fluorophenyl)prop-1-en-1-yl)-6-((3-(trifluoromethyl)phenyl)sulfonyl)-1,2,4,4a,5,6-hexahydro-3H-pyrazino[1,2-a]quinoxaline-3-carbothioamide] | 23.5 nM | 0.89 | 308 nM | 5.0 |
| CC1(C)C=C(c2ccc3c(c2)N(S(=O)(=O)c2cccc(C(F)(F)F)c2)C[C@@H]2CN(S(C)(=O)=O)CCN32)CC(C)(C)O1 [Example 19, (S)-3-(methylsulfonyl)-8-(2,2,6,6-tetramethyl-3,6-dihydro-2H-pyran-4-yl)-6-((3-(trifluorometh-yl)phenyl)sulfonyl)-2,3,4,4a,5,6-hexahydro-1H-pyrazino[1,2-a]quinoxaline] | 17.8 nM | 0.97 | 25.7 nM | 2.0 |
| C[C@]1(O)CCN2c3ccc(-c4cc(F)cc(OC(F)F)c4)cc3N(S(=O)(=O)c3cccc(C(F)(F)F)c3)C[C@@H]2C1 [Example 108, (6aS,8S)-3-(3-(difluoromethoxy)-5-fluorophenyl)-8-methyl-5-((3-(trifluoromethyl)phenyl)sulfo-nyl)-6,6a,7,8,9,10-hexa-hydro-5H-pyrido[1,2-a]quinoxalin-8-ol] | 55.4 nM | 0.99 | 1980 nM | 4.0 |
| NS(=O)(=O)N1CCN2c3ccc(-c4cc(F)cc(OC(F)F)c4)cc3N(S(=O)(=O)c3cccc(C(F)(F)F)c3)C[C@@H]2C1 [Example 67, (R)-8-(3-(difluoromethoxy)-5-fluoro-phenyl)-6-((3-(trifluorometh-yl)phenyl)sulfonyl)-1,2,4,4a,5,6-hexahydro-3H-pyrazino[1,2-a]quinoxaline-3-sulfonamide] | 19.7 nM | 0.87 | 158 nM | 3.3 |
| CC(C)(C)OC(=O)C(C)(C)N1CCN2c3ccc(/C=C/c4c(Cl)cccc4C(F)(F)F)cc3N(S(=O)(=O)c3cccc(C(F)(F)F)c3)C[C@@H]2C1 [Example 52, tert-butyl (S,E)-2-(8-(2-chloro-6-(trifluoromethyl)styryl)-6-((3-(trifluoromethyl)phenyl)sul-fonyl)-1,2,4,4a,5,6-hexahydro-3H-pyrazino[1,2-a]quinoxalin-3-yl)-2-methylpropanoate] | 184 nM | 0.50 | ≥ 50000 nM |  |
| O=C(O)COC1CCN2c3ccc(-c4cc(F)cc(OC(F)F)c4)cc3N(S(=O)(=O)c3cccc(C(F)(F)F)c3)C[C@@H]2C1 (stereo partly drawn) [Example 106, 2-(((6aS)-3-(3-(difluoromethoxy)-5-fluorophenyl)-5-((3-(trifluoromethyl)phenyl)sulfonyl)-6,6a,7,8,9,10-hexahydro-5H-pyrido[1,2-a]quinoxalin-8-yl)oxy)acetic acid] | 72.5 nM | 0.48 | 704 nM | 4.1 |
| O=C(O)[C@@H]1CCN2c3ccc(-c4cc(F)cc(OC(F)F)c4)cc3N(S(=O)(=O)c3cccc(C(F)(F)F)c3)C[C@@H]2C1 [Example 117, (6aS,8R)-3-(3-(difluoromethoxy)-5-fluorophenyl)-5-((3-(trifluoro-methyl)phenyl)sulfonyl)-6,6a,7,8,9,10-hexahydro-5H-pyri-do[1,2-a]quinoxaline-8-car-boxylic acid] | 148 nM |  | 627 nM |  |
| O=S(=O)(c1cccc(C(F)(F)F)c1)N1C[C@@H]2CC(F)CCN2c2ccc(-c3cc(F)cc(OC(F)F)c3)cc21 (stereo partly drawn) [Example 103, (6aS)-3-(3-(difluoromethoxy)-5-fluorophenyl)-8-fluoro-5-((3-(trifluoromethyl)phenyl)sulfonyl)-6,6a,7,8,9,10-hexahydro-5H-pyrido[1,2-a]quinoxaline] | 41.1 nM | 0.49 | 1300 nM | 2.7 |
